Assay results as given in a melting point compilation (Tetko et al.).

melting point [°C]	Structure (SMILES)
189 to 191	Cc1cccc(Cn2cccc(C(=O)O)c2=O)c1
137 to 139	Nc1cc(-c2cccc([N+](=O)[O-])c2)n[nH]1
249 to 251	Nc1nc(-c2ccc3c(c2)CC(=O)N3)cs1
106 to 108	CC(C)(C)OC(=O)N1CCC(O)(c2ccccc2CO)CC1
100 to 102	CC(NC(=O)c1ccco1)C(=O)O (centres undefined)
77 to 79	O=C(O)CC1CSCCS1 (centres undefined)
92 to 94	CCS(=O)(=O)c1cccc(S(=O)(=O)Cl)c1
145 to 147	COc1cc(C(=O)O)on1
179 to 181	Cc1c(C(=O)O)nnn1C1CCN(C(=O)OC(C)(C)C)CC1
245 to 247	CC(=O)Nc1cnc(NC(C)=O)s1
139 to 141	N#Cc1cccc(CS(=O)(=O)NN)c1
109 to 111	Brc1nnc2ccccn12
120 to 122	Cc1c(NC(=O)C(C)Cl)cccc1[N+](=O)[O-] (centres undefined)
200 to 202	O=C(O)c1cc2ccccc2c2cccnc12
116 to 118	CC(C)(C)S(=O)(=O)c1ccc(Br)cn1
67 to 69	Cc1cccc([N+](=O)[O-])c1I
119 to 121	COC(=O)C1CNNC(=O)C1 (centres undefined)
143 to 145	O=C(O)c1ccon1
266 to 268	O=C(O)Cn1cc(Br)c(=O)[nH]c1=O
119 to 121	COc1ccc(C=O)cc1C#N
111 to 115	COc1cc(C=O)ccc1OCc1c(C)noc1C
208 to 210	O=C(O)c1cnc(-c2ccsc2)s1
172 to 176	CN(C)S(=O)(=O)c1cccc(C(=O)NCC(=O)O)c1
51 to 53	N#CCNc1cccc(Cl)c1

melting point [°C]	Structure (SMILES)
36 to 38	CC(C)(C)CCCC(=O)O
121 to 123	CC(C)(C)n1cc(C#N)c(N)n1
306 to 308	O=C(O)CNS(=O)(=O)C1CCS(=O)(=O)C1 (centres undefined)
221 to 223	Nc1ccnc2nc(C(F)(F)F)nn12
67 to 69	O=C(CCl)N1CCOC2CCCCC21 (centres undefined)
44 to 46	CN(C)CCN1C(=O)C=CC1=O
55 to 57	Cc1nn(C)c(Cl)c1C#N
106 to 108	CC(Cl)C(=O)N1CCc2ccccc21 (centres undefined)
125 to 127	Nc1ccc(N2CCCC2=O)cc1
35 to 37	O=C(c1ccc(Br)cc1)c1ccccc1F
299 to 301	Nc1ncc(C(=O)O)cc1Br
267 to 269	C#CCNC(=O)CN1C(=O)C(=O)c2cc(Cl)ccc21
136 to 138	Cc1cccnc1NC(=O)C1CCNCC1
137 to 139	COc1ccc(N)c(C(=O)NC2CC2)c1
122 to 124	COc1ccc2cc(CO)ccc2c1
99 to 101	Cc1cc([N+](=O)[O-])ccc1C#N
63 to 65	CCOC=C(C#N)C(=O)O
141 to 143	CNC(=O)c1cc(Oc2cc(N)ccc2C)ccn1
72 to 74	Nc1cc(Br)cnc1-n1cccn1
174 to 176	CC(C)CC(=O)NNC(=O)C(C)Cl (centres undefined)
156 to 158	N#Cc1cnn(CCO)c1N
44 to 46	COc1ccc2c(c1)C(=O)CCO2
73 to 75	CC(NO)c1ccccc1 (centres undefined)
44 to 46	CS(=O)(=O)NCCBr

melting point [°C]	Structure (SMILES)
209 to 211	O=C(O)CN1Cc2ccccc2C1
74 to 76	Nc1ccc(N2CCOCC2)cc1C(F)(F)F
136 to 138	CC(C)(C)C(=O)N1CCCC1C(=O)O (centres undefined)
190 to 192	Cn1ccc2cc[nH]c(=O)c21
203 to 205	Cc1nnnn1-c1cc(N)ccc1C(=O)O
71 to 74	CCCSc1ccc([N+](=O)[O-])c(N)c1
46 to 48	OC1CC(c2ccccc2F)C1 (centres undefined)
165 to 167	CCc1cccc2c(C(=O)CCl)c[nH]c12
160 to 162	O=C(O)CNC1=NS(=O)(=O)c2ccccc21
69 to 71	O=[N+]([O-])c1cccc2c1NCCC2
279 to 281	c1cc(-c2nc3cc4c(cc3[nH]2)OCCO4)cs1
74 to 76	Nc1ccccc1C(=O)N1CCOCC1
259 to 261	CC(C)C1NC(=O)c2ccccc2NC1=O (centres undefined)
85 to 87	O=[N+]([O-])c1cnc2c(c1)CCC2
100 to 102	O=C(c1ccc(F)cc1)c1ccc(C(F)(F)F)cc1
91 to 93	CC(C)C(Br)C(=O)NCc1ccco1 (centres undefined)
162 to 164	CC(C)(C)OC(=O)NCCC(=O)NC(N)=O
61 to 63	CCOC(=O)c1c(N)cc(OC)cc1OC
61 to 63	CN1Cc2ccc(N)cc2C1
47 to 49	Nc1ccc(Oc2ccc(F)cc2)nc1
209 to 211	NC(=O)C1CC(C(=O)O)=NN1c1ccccc1 (centres undefined)
210 to 212	O=C(O)c1cnc2c(cnn2Cc2ccccc2)c1
72 to 74	CC(=O)c1cn(C)nc1C
64 to 66	CN1CCN(CCc2ccc(N)cc2)CC1

melting point [°C]	Structure (SMILES)
151 to 153	CSc1ccc2cc(CCl)c(Cl)nc2c1
107 to 109	CC(=O)N1CCN(CC#N)CC1
215 to 217	Cc1cc(-c2nccn2Cc2ccccc2)c(=O)[nH]n1
204 to 206	CC(Nc1ccc(C(=O)O)cc1[N+](=O)[O-])c1ccccn1 (centres undefined)
118 to 120	Nc1ccccc1S(=O)(=O)Nc1ccccc1
189 to 191	NC(=O)c1ccc(N=C=S)cc1
231 to 233	CCOC(=O)c1[nH]nc2ccc(Br)cc12
201 to 203	CCOc1ccc(C(=O)O)cc1[N+](=O)[O-]
103 to 105	CC1CCCN(C(N)=S)C1 (centres undefined)
163 to 165	Cc1ccc2c(c1)C(=O)N(CCC(=O)O)C2=O
209 to 211	O=C(O)c1cc2c(F)cccc2[nH]1
256 to 258	CCN1N=C(C(=O)O)CC1=O
140 to 142	Nc1ccc(-n2cnnn2)cc1
108 to 110	CS(=O)(=O)c1ccc(OCCC(=O)O)cc1
229 to 231	NS(=O)(=O)c1c[nH]c(C(=O)O)c1
185 to 187	CCOc1cc(C(=O)O)ccc1OCc1cccnc1
139 to 141	O=C(CCl)Nc1ccc(N2CCCCC2)nc1
309 to 311	O=c1[nH]cnc2cnc(Cl)cc12
163 to 165	CCN(CC)c1ccc(-c2nnc(S)o2)cc1
144 to 146	Nc1cc(-c2ccc(Br)o2)no1
127 to 129	COc1ccccc1-c1csc(=O)[nH]1
164 to 166	Cc1[nH]cnc1CC#N
110 to 112	Cc1c(C(=O)CBr)oc2ccccc12
226 to 228	CCOc1ccc(S(=O)(=O)Nc2ccc(C(=O)O)cc2)cc1

melting point [°C]	Structure (SMILES)
56 to 58	O=C(O)C1CCCOC1c1ccccc1 (centres undefined)
82 to 84	CC(=O)Nc1cccc(CN)c1
219 to 221	CCn1c(C2CCN(C(=O)OC(C)(C)C)CC2)n[nH]c1=O
51 to 53	CCOc1ccc(Br)cc1N
57 to 59	Cc1cccc(-c2nnc(CCl)o2)c1
181 to 183	COC(=O)c1n[nH]c2ccc(N)cc12
89 to 93	Nc1cc(S(=O)(=O)Nc2ccccc2Cl)ccc1Cl
177 to 179	ON=Cc1ccc(Oc2ncccn2)cc1
114 to 116	Nc1cc(Br)ccc1-n1cncn1
189 to 191	Cc1cc(Oc2ccc(N)cc2)n[nH]1
86 to 88	OCCC1CSCCN1 (centres undefined)
239 to 241	COC(=O)C=Cn1c(=O)ccn2ncnc12
182 to 184	NC(=O)Nc1ccccc1Oc1ccccc1
270 to 273	Cc1ccc(-c2ccsc2C(=O)NN)cc1
89 to 91	O=C1NCC2(CCCC2)O1
163 to 165	N#Cc1cc2ccccc2nc1Cl
134 to 136	Cc1ccc(CNC(=O)c2cccc(C#N)c2)cc1
205 to 207	Nc1ccc(C(=O)N2CCOCC2)c(Cl)c1
153 to 155	Cc1n[nH]c(C)c1SCC(=O)O
126 to 128	Cc1ccc(-n2cccc2)c(C(=O)O)c1
137 to 139	O=C(O)C1CCCCC1C(=O)NC1CCS(=O)(=O)C1 (centres undefined)
240 to 242	Cc1cnn(-c2ccc(C(=O)O)cc2)c1
77 to 79	C=CCNc1nc2c(s1)CCCC2
107 to 109	CCCNC(=O)c1ccc(Cl)cc1[N+](=O)[O-]

melting point [°C]	Structure (SMILES)
162 to 166	O=C(O)c1cc2c(s1)CCCCC2
93 to 95	CC(C)(C)OC(=O)Nc1cnsn1
113 to 115	O=C(O)CSC(O)C(=O)c1ccccc1 (centres undefined)
160 to 162	O=C(O)CCc1ccc(S(=O)(=O)N2CCOCC2)cc1
211 to 213	O=C1COc2cc(Br)c(S(=O)(=O)Cl)cc2N1
158 to 160	O=C(O)c1cc(Cl)ccc1Sc1ccc(Cl)cc1
97 to 99	Cc1cn2cccnc2n1
207 to 209	O=C1CCc2cc(S(=O)(=O)Cl)c(F)cc2N1
80 to 82	Nc1ccn(-c2cccc(C(F)(F)F)c2)n1
165 to 167	CN1CCc2ccc(C(=O)O)cc21
89 to 91	CC(C)n1nnnc1S
148 to 150	CN(C)S(=O)(=O)c1ccnc(N)c1
99 to 101	Nc1ccc([N+](=O)[O-])cc1Br
115 to 117	OCc1cn(-c2ccccc2)nc1-c1cccs1
96 to 98	CC(C(=O)O)n1cccn1 (centres undefined)
190 to 192	NC(=O)CC(NC(=O)c1ccccc1Cl)C(=O)O (centres undefined)
132 to 134	Cc1cc(C(F)(F)F)c(C#N)c(SCC(=O)O)n1
115 to 124	CC(=O)N1CCC(NC(=O)OCC(F)(F)F)CC1
107 to 109	CC(C)N(CCC#N)S(C)(=O)=O
86 to 88	Cc1nc(N)sc1Cc1cccc(Br)c1

Structure (SMILES)	melting point [°C]
CC(Cl)c1cccc([N+](=O)[O-])c1 (centres undefined)	33 to 35
ClCc1nc(-c2ccoc2)no1	50 to 52
CCc1nnc(NC(=O)CCl)s1	101 to 103
CC(C)C(CN)C(=O)O (centres undefined)	249 to 251
COc1ccc(CCN)c(O)c1	98 to 100
CCC(C)n1nc(C(=O)O)cc1C (centres undefined)	103 to 105
ClCc1nc2ncc(Br)cc2[nH]1	209 to 211
Clc1cc(N2CCNCC2)ncn1	100 to 102
CCCCCn1cc(C(=O)O)c2ccccc21	97 to 99
